Experimental data taken from patent US20120149710A1, “SORTASE A INHIBITORS” (priority 2009, published 2012).
pEC50, pIC50, pKi: −log10 of the molar value. Converted amounts (≈) assume the structure as drawn. “Also recorded” adds a separate entry of the source.

Experiments:
[1] = target: B. anthracis sortase A enzyme (Bacillus anthracis, UniProt P0DPQ5); experiment: cell-based; conditions: for EC50 (estimated from a single concentration): read-out: EC50 estimated from a single concentration
S. aureus = S. aureus culture growth in the presence of 500 μM inhibitor; type: cell-based, Staphylococcus aureus; conditions: vs 2.5% DMSO control
SrtA = SrtA (Staphylococcus aureus, UniProt Q2FV99); type: biochemical; conditions: inhibitor 10-fold above IC50, then rapid dilution
S. aureus strain Newman = experiment: MIC by microtiter broth dilution method; type: cell-based; conditions: Staphylococcus aureus, read-out: MIC preventing S. aureus growth
[2] = target: Bacillus anthracis sortase enzyme (BaSrtA) (Bacillus anthracis, UniProt P0DPQ5); experiment: biochemical
S. aureus SrtA = S. aureus SrtA (Staphylococcus aureus, UniProt Q2FV99); experiment: FRET assay of SrtA-catalyzed hydrolysis of Abz-LPETG-Dap(Dnp); IC50 / Ki app; type: biochemical; conditions: for pIC50: purified enzyme, FRET, read-out: IC50 for inhibition of S. aureus SrtA; for pKi: read-out: Ki app (apparent dissociation constant of enzyme-inhibitor complex, Morrison's equation), S. aureus SrtA
[3] = tested on: SrtA activity in whole cells, S. aureus strain RN4220; experiment: Cell adhesion assay: whole cell adhesion to IgG coated plates (SrtA activity in whole cells); type: cell-based, Staphylococcus aureus; conditions: IgG coated microtiter plates

B. anthracis sortase A enzyme, sequence (P0DPQ5 whole entry, looked up): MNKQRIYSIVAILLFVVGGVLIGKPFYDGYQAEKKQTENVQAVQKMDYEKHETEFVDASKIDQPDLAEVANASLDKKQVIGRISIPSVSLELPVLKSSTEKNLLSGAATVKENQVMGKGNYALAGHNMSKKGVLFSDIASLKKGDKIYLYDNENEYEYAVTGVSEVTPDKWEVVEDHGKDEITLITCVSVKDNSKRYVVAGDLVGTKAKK
S. aureus SrtA, sequence (Q2FV99 60-206): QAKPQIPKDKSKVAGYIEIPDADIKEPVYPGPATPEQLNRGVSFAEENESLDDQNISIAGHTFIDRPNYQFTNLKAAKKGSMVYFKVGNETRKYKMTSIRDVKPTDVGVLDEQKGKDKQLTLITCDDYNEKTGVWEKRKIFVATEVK
Bacillus anthracis sortase enzyme (BaSrtA), sequence (P0DPQ5 whole entry, looked up): as the sequence (P0DPQ5 whole entry, looked up) above
SrtA, sequence (Q2FV99 60-206): as the sequence (Q2FV99 60-206) above

Row | Compound | EC50 (estimated from a single concentration) [1] [nM] | Effect on S. aureus growth in cell culture, in words (S. aureus) | pKi [2] | pIC50 (S. aureus SrtA) | pKi (S. aureus SrtA) | other results
1 | CCOc1c(SSc2ccccn2)cnn(-c2cccc(F)c2)c1=O [2-59, 4-Ethoxy-2-(3-fluorophenyl)-5-(pyridin-2-yldisulfanyl)pyridazin-3(2H)-one] | > 8000 | – | – | – | – | –
2 | Cc1ccc(N2C(=O)/C(=C/c3cc([N+](=O)[O-])cc(Br)c3O)SC2=S)c(C)c1 [compound 1] | – | toxic | – | – | – | Enzyme activity recovered immediately after dilution (SrtA): 84%; MIC (S. aureus strain Newman): ~10 µM (≈ 4.65 µg/mL)
3 | CCSc1c(S)cnn(-c2ccccc2)c1=O [compound 2-9] | – | do not significantly inhibit S. aureus growth; also recorded: not bactericidal; also recorded: do not impair microbial growth in cell culture | ~6.52 | 5.85 | 5.85 | Inhibition of S. aureus SrtA, potency in words (S. aureus SrtA): low micromolar
4 | CCOc1c(SSc2ccccn2)cnn(-c2ccccc2)c1=O [compound 2-50, 4-Ethoxy-5-(2-pyridyldithio)-2-phenylpyridazin-3-one] | > 8000 | – | – | – | ~7.52 | Concentration giving near complete inhibition of sortase activity [1]: about 34 μM; pEC50 [1]: ~4.82
5 | CC1=NN(c2ccccc2)C(=S)/C1=C/Nc1c(Br)cc(Br)cc1Br [compound 3-12] | > 28000 | do not substantially affect bacterial growth; also recorded: do not impair microbial growth in cell culture | 5.77 | 6.52 | 6.52 | Improvement of potency relative to lead 3 (S. aureus SrtA; 4-NO2 changed to 2,4,6-Br3): about 15 fold
6 | Cc1oc(CN)nc1C(=O)c1nccs1 [compound 4] | – | – | – | 5.14 | – | Effect on SrtA-dependent adherence / protein display in whole cells [3]: potent effects; also recorded: inhibits protein display by SrtA in vivo
